Experimental data reported in the supplement of paper PMC10307832.

Key:
Assay in all cases: relative viability (nuclei count vs DMSO), 5 days (fraction); higher = more cells survive
[1] = compound: CC1=C(C(=O)N2C=CSC2=N1)CCN3CCC(=C(C4=CC=CC=C4)C5=CC=C(C=C5)F)CC3 + Cc1nc(Nc2ncc(C(=O)Nc3c(C)cccc3Cl)s2)cc(N2CCN(CCO)CC2)n1 [Dasatinib] (partner 0.075 µM)
Outline: (§1)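 Lung cancer cell lines were seeded in 1536-well plates and dosed by pin tool the next day, with either a single drug or a fixed anchor-drug dose combined with five library-drug doses (not always all listed) spaced in √10 steps. Five days later, one step fixed the cells and stained their nuclei (final 0.05% Triton X-100, 1% formaldehyde, 1 ug/ml Hoechst), and nuclei were counted on 4× images. Relative viability is the nuclei count in treated wells divided by the count in vehicle wells, and each value is the median of duplicate plates.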

[2] = compound: CC1=C(C(=O)N2C=CSC2=N1)CCN3CCC(=C(C4=CC=CC=C4)C5=CC=C(C=C5)F)CC3 + CC(=O)c1c(C)c2cnc(Nc3ccc(N4CCNCC4)cn3)nc2n(C2CCCC2)c1=O [Palbociclib] (partner 0.5 µM)
Outline: as §1

[3] = compound: CC1=C(C(=O)N2C=CSC2=N1)CCN3CCC(=C(C4=CC=CC=C4)C5=CC=C(C=C5)F)CC3 + CC(C)C[C@H](NC(=O)[C@H](Cc1ccccc1)NC(=O)c1cnccn1)B(O)O [Bortezomib] (partner 0.002 µM)
Outline: as §1

[4] = compound: CC1=C(C(=O)N2C=CSC2=N1)CCN3CCC(=C(C4=CC=CC=C4)C5=CC=C(C=C5)F)CC3 + CCNC(=O)c1noc(-c2cc(C(C)C)c(O)cc2O)c1-c1ccc(CN2CCOCC2)cc1 [Luminespib] (partner 0.01 µM)
Outline: as §1

| Cell Line | relative viability ([1]; first compound 0.08 µM) | relative viability ([1]; first compound 0.253 µM) | relative viability ([1]; first compound 0.8 µM) | relative viability ([1]; first compound 2.53 µM) | relative viability ([1]; first compound 8 µM) | relative viability ([2]; first compound 0.08 µM) | relative viability ([2]; first compound 0.253 µM) | relative viability ([2]; first compound 0.8 µM) | relative viability ([2]; first compound 2.53 µM) | relative viability ([2]; first compound 8 µM) | relative viability ([3]; first compound 0.08 µM) | relative viability ([3]; first compound 0.253 µM) | relative viability ([3]; first compound 0.8 µM) | relative viability ([3]; first compound 2.53 µM) | relative viability ([3]; first compound 8 µM) | relative viability ([4]; first compound 0.08 µM) | relative viability ([4]; first compound 0.253 µM) | relative viability ([4]; first compound 0.8 µM) | relative viability ([4]; first compound 2.53 µM) | relative viability ([4]; first compound 8 µM) |
| --- | --- | --- | --- | --- | --- | --- | --- | --- | --- | --- | --- | --- | --- | --- | --- | --- | --- | --- | --- | --- |
| COR-L 105 | 0.416 | 0.32 | 0.241 | 0.372 | 0.294 | 0.439 | 0.419 | 0.383 | 0.406 | 0.383 | 0.83 | 0.691 | 0.75 | 0.919 | 0.568 | 0.673 | 0.817 | 0.798 | 0.809 | 0.659 |
| HARA | 0.243 | 0.23 | 0.265 | 0.229 | 0.136 | 0.307 | 0.275 | 0.276 | 0.289 | 0.285 | 1.08 | 1.47 | 1.13 | 1.21 | 1.05 | 0.682 | 0.73 | 0.688 | 0.477 | 0.426 |
| LXF-289 | 0.276 | 0.18 | 0.214 | 0.209 | 0.189 | 0.595 | 0.666 | 0.604 | 0.599 | 0.469 | 1.08 | 1.13 | 1.05 | 0.97 | 0.933 | 0.513 | 0.713 | 0.599 | 0.839 | 0.529 |
| NCI-H647 | 0.12 | 0.15 | 0.167 | 0.18 | 0.0953 | 0.461 | 0.425 | 0.298 | 0.453 | 0.153 | 0.858 | 0.744 | 0.888 | 1.5 | 0.453 | 0.142 | 0.157 | 0.153 | 0.119 | 0.179 |
| LCLC-97TM1 | 0.857 | 0.773 | 0.949 | 0.92 | 0.658 | 0.255 | 0.217 | 0.284 | 0.283 | 0.205 |  | 0.484 | 0.249 | 0.408 | 0.597 | 0.709 | 0.831 | 0.789 | 0.938 | 0.514 |
| NCI-H1734 | 0.484 | 0.438 | 0.458 | 0.468 | 0.35 | 0.367 | 0.342 | 0.324 | 0.318 | 0.378 | 0.873 | 0.715 | 0.915 | 1.12 | 0.447 | 0.202 | 0.174 | 0.205 | 0.166 | 0.183 |
| NCI-H322M | 0.267 | 0.238 | 0.246 | 0.254 | 0.27 | 0.552 | 0.492 | 0.479 | 0.504 | 0.524 | 1.3 | 1.28 | 1.24 | 1.35 | 1.09 | 0.768 | 0.899 | 0.928 | 0.888 | 0.81 |
| NCI-H1650 | 0.436 | 0.324 | 0.297 | 0.405 | 0.263 | 0.395 | 0.345 | 0.313 | 0.383 | 0.348 | 0.216 | 0.193 | 0.21 | 0.234 | 0.227 | 0.182 | 0.204 | 0.196 | 0.188 | 0.189 |
| PC-14 | 0.228 | 0.284 | 0.21 | 0.237 | 0.282 | 0.358 | 0.574 | 0.455 | 0.622 | 0.328 | 0.9 | 0.759 | 1.01 | 1.09 | 0.592 | 0.168 | 0.175 | 0.151 | 0.176 | 0.151 |
| NCI-H2228 | 0.542 | 0.555 | 0.562 | 0.546 | 0.338 | 0.56 | 0.68 | 0.723 | 0.468 | 0.432 | 0.939 | 0.928 | 1.25 | 1.17 | 0.64 | 0.126 | 0.194 | 0.181 | 0.137 | 0.101 |
